For 40 molecules, EC50 results are on record in EP1257544B1, “PIPERAZINE AND PIPERIDINE DERIVATIVES FOR TREATMENT OR PREVENTION OF NEURONAL DAMAGE” (VERTEX PHARMACEUTICALS INCORPORATED, priority 2000, dated 2001).

Structures are written as SMILES. Counter-ions that a name gives are not always drawn.

The test relates to Dissociated VM cells. Put plainly: Neuroprotection Assay (NMDA-induced neuroexcitotoxic injury, high affinity 3H-dopamine uptake). Format: cell-based, Sprague-Dawley rat. The following applies: embryonic day 15 rat ventral mesencephalic cultures, NMDA (100-400 µM) for 20 hours. An excerpt:
The neuroprotective activity of the compounds of this invention may be assayed using rat embryo ventral mesencephalic cells in culture which are subsequently exposed to the glutamate receptor agonist NMDA. This assay is described in detail in the example section.
The ventral mesencephalic region was dissected out of embryonic day 15 Sprague-Dawley rat embryos (Harlan), dissociated into single cell suspension by a combination of trypsinization and trituration (Costantini et al., Neurobiol Dis., pp. 97-106 (1998). Dissociated VM cells were plated into poly-L-ornithine-coated 96-well plates at a density of 85,000 cells/well in 100 uL of DMEM supplemented with 18% heat-inactivated horse serum, 0.24% glucose, 2 mM glutamine and 50 u/ml pernicillin/streptomycin and incubated in a 5% CO2 incubator. After one day in culture (DIV1), the medium was replaced with 100 µL of a defined medium (DMEM supplemented with 1x N2 cocktail (Gibco-BRL), 0.12% glucose, 2 mM glutamine, and 50 units/ml penicillin/streptomycin) containing DMSO or various concentrations of the compounds of this invention. On DIV5, neuroexcitotoxic injury was induced by the addition of various concentrations of the glutamate receptor agonist NMDA (100-400 µM). Cultures were incubated with the neurotoxin for 20 hours and the effects of neurophilin compounds were assessed using high affinity ^3H-dopamine uptake according to a procedure published by Park and Mytilineou [Brain Res., 599, pp. 83-97 (1992)].
Turning to `O=C([C@@H]1CCCN1Cc1ccccc1)N1CCC(Oc2ccc(F)cc2)CC1` [Compound 48, ((2S)-1-Benzylpyrrolidin-2-yl)-[4-(4-fluorophenoxy)-piperidin-1-yl] -methanone hydrochloride], the EC50 is < 100 nM.

On to `CCN1CCCC[C@H]1C(=O)N1CCC[C@H]1C(c1ccccc1)c1ccccc1` [Compound 27, 1-[(S)-2-(1,1-Diphenylmethyl)-pyrrolidin-1-yl]-1-((S)-1-ethyl-piperidin-2-yl)-methanone], for which the EC50 was > 500 nM.

`CN1CCC=C(C(=O)N2CCC(Cc3ccc(F)cc3)CC2)C1` [Compound 89, [4-(4-Fluorobenzyl)piperidin-1-yl]-(1-methyl-1,2,5,6-tetrahydropyridin-3-yl) methanone hydrochloride]: the EC50 is 100 to 500 nM.

For `O=C([C@@H]1C[C@@H](O)CN1Cc1ccccc1)N1CCC(Cc2ccccc2)CC1` [Compound 30, ((2S,4R) -1-Benzyl-4-hydroxypyrrolidin-2-yl)-(4-benzylpiperidin-1-yl)-methanone], the EC50 is < 100 nM.

As for `CCN1CCCC[C@H]1C(=O)N1CCN(Cc2cccnc2)CC1` [Compound 36, ((2S)-1-Ethylpiperidin-2-yl)-(4-pyridin-3-ylmethylpiperazin-1-yl)-methanone trihydrochloride], the EC50 is > 500 nM.

Regarding `CN1CCC(C(=O)N2CCC(Cc3ccccc3)CC2)CC1` [Compound 202], the EC50 lay in the range of 100 to 500 nM.

For the molecule `O=C([C@@H]1CCCN1CCc1ccccc1)N1CCC(Cc2ccccc2)CC1` [Compound 57, (4-Benzylpiperidin-1-yl)-((2S)-1-phenethylpyrrolidin-2-yl)-methanone], the EC50 lay within 100 to 500 nM.

As for `O=C([C@@H]1CCCN1Cc1ccccc1)N1CCC(Cc2ccccc2)CC1` [Compound 52, (4-Benzylpiperidin-1-yl)-((2S)-1-benzylpyrrolidin-2-yl)-methanone hydrochloride], the EC50 is < 100 nM.

On to `COc1ccc(CN2CCCC[C@H]2C(=O)N2CCN(C(c3ccccc3)c3ccccc3)CC2)cc1` [Compound 60, (4-Benzhydrylpiperazin-1-yl)-[(2S)-1-(4-methoxybenzyl)-piperidin-2-yl]-methanone dihydrochloride], for which the EC50 is < 100 nM.

Regarding `CCN1CCCC[C@H]1C(=O)N1CCN(S(=O)(=O)c2ccc(F)cc2)CC1` [Compound 81, ((2S)-1-Ethylpiperidin-2-yl)-[4-(4-fluorobenzenesulfonyl)-piperazin-1-yl]-methanone hydrochloride], the EC50 was > 500 nM.

As to `CCN1CCC(C(=O)N2CCC(Cc3ccc(F)cc3)CC2)CC1` [Compound 270], the EC50 was in the range of 100 to 500 nM.

As to `CC(C)=CCN1CCC(C(=O)N2CCN(c3ccc(F)cc3)CC2)CC1` [Compound 260], the EC50 is < 100 nM.

Turning to `CCN1CCCC[C@H]1C(=O)N1CCN(Cc2ccc(F)c(F)c2)CC1` [Compound 77, [4-(3,4-Difluorobenzyl)-piperazin-1-yl]-((2S) -1-ethylpiperidin-2-yl)-methanone], the EC50 lay in the range of 100 to 500 nM.

In the case of `CC(C)CN1CCCC[C@H]1C(=O)N1CCN(C(c2ccc(F)cc2)c2ccc(F)cc2)CC1` [Compound 66, [4-[Bis-(4-fluorophenyl)methyl]-piperazin-1-yl]-((2S)-1-(2-methylpropyl)-piperidin-2-yl)-methanone], the EC50 is > 500 nM.

For the molecule `O=C([C@@H]1CCCN1CCCc1ccccc1)N1CCC(Cc2ccccc2)CC1` [Compound 59, (4-Benzylpiperidin-1-yl)-[(2S)-1-(3-phenylpropyl) - pyrrolidin-2-yl]-methanone hydrochloride], the EC50 fell in the range of 100 to 500 nM.

Regarding `O=C([C@@H]1CCCCN1Cc1ccccc1)N1CCN(C(c2ccc(F)cc2)c2ccc(F)cc2)CC1` [Compound 61, ((2S)-1-Benzylpiperidin-2-yl)-{4-[bis-(4-fluorophenyl)methyl]-piperazin-1-yl}-methanone], the EC50 is 100 to 500 nM.

Take `CCN1CCCC[C@@H]1C(=O)N1CCN(C(c2ccccc2)c2ccccc2)CC1` [Compound 15, 1-[4-(1,1-Diphenylmethyl)piperazin-1-yl]-1-((R)-1-ethylpiperidin-2-yl)methanone]: the EC50 was < 100 nM.

As for `CCN1CCCC[C@H]1C(=O)N1CCN(C(c2ccccc2)c2nc(OC)cc(OC)n2)CC1` (stereo partly shown) [Compound 43], the EC50 was 100 to 500 nM.

As for `CCN1CCCC[C@H]1C(=O)N1CCN(Cc2ccc3c(c2)OCO3)CC1` [Compound 71, (4-Benzo[1,3]dioxol-5-ylmethylpiperazin-1-yl)-((2S)-1-ethylpiperidin-2-yl)-methanone dihydrochloride], the EC50 was > 500 nM.

Take `CCN1CCCC[C@H]1C(=O)N1CCN(C(=O)c2ccc(F)cc2)CC1` [Compound 79, ((2S)-1-Ethylpiperidin-2-yl)-[4-(4-fluorobenzoyl)-piperazin-1-yl] methanone hydrochloride]: the EC50 was in the range of 100 to 500 nM.

Turning to `CCN1CCCC[C@H]1C(=O)N1CCC(Cc2ccc(F)cc2)CC1` [Compound 47, ((2S)-1-Ethylpiperidin-2-yl)-[4-(4-fluorobenzyl)-piperidin-1-yl]-methanone hydrochloride], the EC50 was < 100 nM.

As to `CN1CCCC(C(=O)N2CCC(Cc3ccc(F)cc3)CC2)C1` (stereo not shown) [Compound 90, [4-(4-Fluorobenzyl)piperidin-1-yl]-(1-methylpiperidin-3-yl) methanone hydrochloride], the EC50 is < 100 nM.

With `CCN1CCC[C@H]1C(=O)N1CCN(C(c2ccc(F)cc2)c2ccc(F)cc2)CC1` [Compound 50, 4-[Bis-(4-fluorophenyl)methyl]piperazin-1-yl}-((2S)-1-ethylpyrrolidin-2-yl)-methanone dihydrochloride], the EC50 lay in the range of 100 to 500 nM.

Consider `O=C(C1CCN(CC2CC2)CC1)N1CCN(c2ccc(F)cc2)CC1` [Compound 262], for which the EC50 was < 100 nM.

Consider `CCN1CCCC[C@H]1CN1CCC(Cc2ccccc2)CC1` [Compound 101, 4-Benzyl-1-((2S)-1-ethylpiperidin-2-ylmethyl)-piperidine], for which the EC50 is < 100 nM.

`CCN1CCC(C(=O)N2CCN(c3ccc(F)cc3)CC2)CC1` [Compound 226]: the EC50 fell in the range of 100 to 500 nM.

`O=C(C1CC2CCN1CC2)N1CCC(Cc2ccc(F)cc2)CC1` (stereo not shown) [Compound 88, (1-Aza-bicyclo[2.2.2]oct-2-yl)-[4-(4-fluoro-benzyl)-piperidin-1-yl] methanone hydrochloride]: the EC50 lay in the range of 100 to 500 nM.

For `CCN1CCCC[C@H]1C(=O)N1CCN(CCc2ccccc2)CC1` [Compound 74, ((2S)-1-Ethylpiperidin-2-yl)-(4-phenethylpiperazin-1-yl)-methanone dihydrochloride], the concentration giving a half-maximal response (EC50) was > 500 nM.

For `O=C([C@@H]1CCCN1Cc1ccccc1)N1CCN(c2ccc(F)cc2)CC1` [Compound 86, ((2S)-1-Benzylpyrrolidin-2-yl)-[4-(4-fluorophenyl)piperazin-1-yl] methanone hydrochloride], the EC50 is < 100 nM.

As to `CCN1CCCC[C@H]1C(=O)N1CCN(C(=O)c2ccccc2)CC1` [Compound 78, [4-((2S)-1-Ethylpiperidine-2-carbonyl)-piperazin-1-yl]-phenyl methanone], the EC50 was > 500 nM.

In the case of `O=C([C@@H]1CCCN1Cc1ccccc1)N1CCC(Cc2ccc(F)cc2)CC1` [Compound 49, ((2S)-1-Benzylpyrrolidin-2-yl)-[4-(4-fluorobenzyl)-piperidin-1-yl]-methanone hydrochloride], the EC50 is < 100 nM.

Regarding `O=C([C@@H]1CCCN1Cc1ccccc1)N1CCN(Cc2ccc(F)cc2)CC1` [Compound 87, ((2S)-1-Benzyl-pyrrolidin-2-yl)-[4-(4-fluoro-benzyl)-piperazin-1-yl] methanone], the EC50 was > 500 nM.

Take `CCN1CCC[C@H]1C(=O)N1CCC(Cc2ccccc2)CC1` [Compound 53, (4-Benzylpiperidin-1-yl)-((2S)-1-ethylpyrrolidin-2-yl)-methanone hydrochloride]: the EC50 is 100 to 500 nM.

For the molecule `CCN1CCCC[C@H]1C(=O)N1CCC(Cc2ccccc2)C1` (stereo partly drawn) [Compound 35, (3-Benzylpyrrolidin-1-yl)-((2S)-1-ethylpiperidin-2-yl)-methanone], the EC50 was 100 to 500 nM.

As to `CN1CCCC(C(=O)N2CCC(Cc3ccccc3)CC2)C1` (stereo not shown) [Compound 204], the EC50 was in the range of 100 to 500 nM.

As for `CCN1CCCC[C@H]1C(=O)N1CCC(Cc2ccccc2)CC1` [Compound 26, 1-(4-Benzylpiperidin-1-yl)-1-((S)-1-ethylpiperidin-2-yl)methanone], the EC50 was < 100 nM.

`CCN1CCCC[C@H]1C(=O)N1CCN(C(c2ccc(F)cc2)c2ccc(F)cc2)CC1` [Compound 25, 1-{4-[1,1-Bis-(4-fluorophenyl)methyl]-piperazin-1-yl}-1-((S)-1-ethylpiperidin-2-yl)methanone]: the EC50 was in the range of 100 to 500 nM.

With `CCN1CCCC[C@@H]1C(=O)N1CCN(C(c2ccc(F)cc2)c2ccc(F)cc2)CC1` [Compound 40, {4-[Bis-(4-fluorophenyl)methyl]-piperazin-1-yl}-((2R)-1-ethylpiperidin-2-yl)-methanone], the EC50 is > 500 nM.

Regarding `CCN1CCCC[C@H]1C(=O)N1CCN(C(c2ccccc2)c2ccccc2)CC1` [Compound 1, 1-[4-(1,1-Diphenylmethyl)piperazin-1-yl]-1-((S)-1-ethylpiperidin-2-yl)methanone], the EC50 is < 100 nM.

Take `CC(C)=CCN1CCC(C(=O)N2CCC(Cc3ccc(F)cc3)CC2)CC1` [Compound 276]: the EC50 is < 100 nM.

One may read the EC50 as the midpoint of the concentration-response curve.
